Measurements published in patent US8269000B2, “Substituted pyrimidine and triazine compounds” (Gruenenthal GmbH, priority 2008, dated 2012).

target: T1, rat B1R (Rattus norvegicus, UniProt P97583); assay: FLIPR Ca2+ functional study on bradykinin receptor 1 (rB1R CHO K1 cells); assay type: cell-based; settings: % inhibition rat B1R at 10 μM
T1 construct: expressed in transfected cells; host or cells: CHO K1 cells
T1 sequence (P97583 1-337): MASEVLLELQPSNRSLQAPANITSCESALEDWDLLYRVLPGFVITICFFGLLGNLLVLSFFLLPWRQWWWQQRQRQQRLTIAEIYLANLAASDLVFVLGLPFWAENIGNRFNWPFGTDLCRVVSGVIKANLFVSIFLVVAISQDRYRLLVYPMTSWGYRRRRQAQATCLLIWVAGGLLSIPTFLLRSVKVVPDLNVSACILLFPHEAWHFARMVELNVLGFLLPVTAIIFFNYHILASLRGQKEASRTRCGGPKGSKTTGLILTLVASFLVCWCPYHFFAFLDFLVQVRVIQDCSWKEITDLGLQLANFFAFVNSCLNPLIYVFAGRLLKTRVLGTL
Procedure, shortened: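 CHO K1 cells stably expressing human or rat B1R were loaded with Fluo-4 and read on FLIPR (ex 488/em 540 nm, peak counts). Test compound (10 μM, or a concentration range for IC50) was added first for % activation versus control agonist; after 10-20 min, EC80 Lys-Des-Arg9-bradykinin (human) or Des-Arg9-bradykinin (rat) was added, giving % inhibition of maximum. n=2-3, N≥2.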

Compound	% inh. (rat B1R) 10 μM [%]
COc1cc(C)c(S(=O)(=O)N(C)C(COc2nccc(N3CCC(c4nc(-c5ccncc5)no4)CC3)n2)c2ccccc2)c(C)c1 (stereo not drawn) [G_CC-134]	88
COc1cc(C)c(S(=O)(=O)N2CCC[C@@H]2COc2ccnc(N3CCCN(Cc4ccccn4)CC3)n2)c(C)c1 [H_CC-043, 1-[4-[[(2R)-1-[(4-methoxy-2,6-dimethyl-phenyl)sulfonyl]-pyrrolidin-2-yl]-methoxy]-pyrimidin-2-yl]-4-(pyridin-2-yl-methyl)-[1,4]diazepam]	80

same assay, conditions: CHO-K1, % inhibition rat B1R at 10 μM, read-out: % inh. (rat B1R) 10 μM

Compound	inhibition at 10 µM [%]
COc1cc(C)c(S(=O)(=O)N2CCCCC2COc2nccc(N3CCN(c4ncccn4)CC3)n2)c(C)c1 (stereo not drawn) [G_CC-012, 2-[[1-(4-methoxy-2,6-dimethylphenyl)sulfonyl-2-piperidinyl]methoxy]-4-[4-(2-pyrimidinyl)-1-piperazinyl]pyrimidine]	76
COc1cc(C)c(S(=O)(=O)N2CC(Oc3ccnc(N4CCC(N5CCN(C)CC5)CC4)n3)C2)c(C)c1 [H_CC-015, 4-[[1-(4-methoxy-2,6-dimethylphenyl)sulfonyl-3-azetidinyl]oxy]-2-[4-(4-methyl-1-piperazinyl)-1-piperidinyl]pyrimidine]	56
COc1cc(C)c(S(=O)(=O)N2CCCC(Oc3nccc(N4CC5CC4CN5Cc4ccncc4)n3)C2)c(C)c1 (stereo not drawn) [G_CC-057, 5-[2-[[1-(4-methoxy-2,6-dimethylphenyl)sulfonyl-3-piperidinyl]oxy]-4-pyrimidinyl]-2-(4-pyridylmethyl)-2,5-diazabicyclo[2.2.1]heptane]	90
COc1cc(C)c(S(=O)(=O)N(C)C(COc2ccnc(N3[C@@H]4CC[C@H]3CC(Oc3ccncc3)C4)n2)c2ccccc2)c(C)c1 (stereo partly drawn) [H_CC-093, 4-methoxy-N,2,6-trimethyl-N-[1-phenyl-2-[2-[(1S,5R)-3-pyridin-4-yloxy-8-azabicyclo[3.2.1]octan-8-yl]-pyrimidin-4-yl]oxy-ethyl]-benzenesulfonic acid amide]	63
COc1cc(C)c(S(=O)(=O)N(C)C(COc2nccc(N3CCC(O)(c4ccncc4)CC3)n2)c2ccccc2)c(C)c1 (stereo not drawn) [G_CC-112, N-[2-[4-(4-hydroxy-4-pyridin-4-yl-piperidin-1-yl)-pyrimidin-2-yl]oxy-1-phenyl-ethyl]-4-methoxy-N,2,6-trimethyl-benzenesulfonic acid amide]	88
COc1cc(C)c(S(=O)(=O)N2CCCCC2COc2nccc(N3CCC(O)(c4ccncc4)CC3)n2)c(C)c1 (stereo not drawn) [G_CC-111, 1-[2-[[1-[(4-methoxy-2,6-dimethyl-phenyl)sulfonyl]-piperidin-2-yl]-methoxy]-pyrimidin-4-yl]-4-pyridin-4-yl-piperidin-4-ol]	90
COc1cc(C)c(S(=O)(=O)N2CCC[C@H]2COc2ccnc(N3CCC(OCCN4CCCC4)(c4cccc(F)c4)CC3)n2)c(C)c1 [H_CC-092, 2-[4-(3-fluorophenyl)-4-(2-pyrrolidin-1-yl-ethoxy)-piperidin-1-yl]-4-[[(2S)-1-[(4-methoxy-2,6-dimethyl-phenyl)sulfonyl]-pyrrolidin-2-yl]-methoxy]-pyrimidine]	50
COc1cc(C)c(S(=O)(=O)N(C)C(COc2nccc(N3CCC4(CCN(Cc5ccccc5)C4=O)CC3)n2)c2ccccc2)c(C)c1 (stereo not drawn) [G_CC-061, N-[2-[[4-(3-benzyl-4-oxo-3,8-diazaspiro[4.5]decan-8-yl)-2-pyrimidinyl]oxy]-1-phenylethyl]-4-methoxy-N,2,6-trimethylbenzenesulfonamide]	81
COc1cc(C)c(S(=O)(=O)N2CC(Oc3ccnc(N(C)CCCN4CCC(c5ccccc5)(N(C)C)CC4)n3)C2)c(C)c1 [H_CC-074, 3-(4-dimethylamino-4-phenyl-piperidin-1-yl)-propyl-[4-[1-[(4-methoxy-2,6-dimethyl-phenyl)sulfonyl]-azetidin-3-yl]oxy-pyrimidin-2-yl]-methyl-amine]	59
COc1cc(C)c(S(=O)(=O)N2CCC[C@H]2COc2ccnc(N3CCN(C)CC3)n2)c(C)c1 [H_CC-008, 4-[[(2S)-1-(4-methoxy-2,6-dimethylphenyl)sulfonyl-2-pyrrolidinyl]methoxy]-2-(4-methyl-1-piperazinyl)pyrimidine]	95
COc1cc(C)c(S(=O)(=O)N2CCC[C@H]2COc2nccc(N3CCn4cc(CN5CCCCC5)nc4C3)n2)c(C)c1 [G_CC-109, 7-[2-[[(2S)-1-[(4-methoxy-2,6-dimethyl-phenyl)sulfonyl]-pyrrolidin-2-yl]-methoxy]-pyrimidin-4-yl]-2-(piperidin-1-yl-methyl)-5,6,7,8-tetrahydro-imidazo[1,2-a]pyrazine]	98
COc1cc(C)c(S(=O)(=O)N2c3ccccc3C[C@H]2COc2ccnc(N3CCN(c4ccncc4)CC3)n2)c(C)c1 [H_CC-019, (2S)-1-(4-methoxy-2,6-dimethylphenyl)sulfonyl-2-[[2-[4-(4-pyridyl)-1-piperazinyl]-4-pyrimidinyl]oxymethyl]indoline]	98
COc1cc(C)c(S(=O)(=O)N(C)CCOc2nccc(N3CCC4(CC3)OCc3ccccc34)n2)c(C)c1 [G_CC-029, 4-methoxy-N,2,6-trimethyl-N-[2-[[4-(1′-spiro[1H-isobenzofuran-3,4′-piperidin]yl)-2-pyrimidinyl]oxy]ethyl]benzenesulfonamide]	52
COc1cc(C)c(S(=O)(=O)N2c3ccccc3C[C@H]2COc2ccnc(N(C)CCCN3CCC(c4ccccc4)(N(C)C)CC3)n2)c(C)c1 [H_CC-075, 3-(4-dimethylamino-4-phenyl-piperidin-1-yl)-propyl-[4-[[(2S)-1-[(4-methoxy-2,6-dimethyl-phenyl)sulfonyl]-2,3-dihydro-1H-indol-2-yl]-methoxy]-pyrimidin-2-yl]-methyl-amine]	75
COc1cc(C)c(S(=O)(=O)N2CCC[C@H]2COc2nccc(N3CCC4(CC3)C(=O)N(C)CC4c3ccc(F)cc3)n2)c(C)c1 (stereo partly drawn) [G_CC-050, 1-(4-fluorophenyl)-8-[2-[[(2S)-1-(4-methoxy-2,6-dimethylphenyl)sulfonyl-2-pyrrolidinyl]methoxy]-4-pyrimidinyl]-3-methyl-3,8-diazaspiro[4.5]decan-4-one]	73
COc1cc(C)c(S(=O)(=O)N2CCCCC2COc2ccnc(N3CCC(O)(c4cccnc4)CC3)n2)c(C)c1 (stereo not drawn) [H_CC-007, 1-[4-[[1-(4-methoxy-2,6-dimethylphenyl)sulfonyl-2-piperidinyl]methoxy]-2-pyrimidinyl]-4-(3-pyridyl)-4-piperidinol]	71
COc1cc(C)c(S(=O)(=O)N(C)CCOc2ccnc(N3CCC(OCCN4CCCC4)(c4cccc(F)c4)CC3)n2)c(C)c1 [H_CC-090, N-[2-[2-[4-(3-fluorophenyl)-4-(2-pyrrolidin-1-yl-ethoxy)-piperidin-1-yl]-pyrimidin-4-yl]oxy-ethyl]-4-methoxy-N,2,6-trimethyl-benzenesulfonic acid amide]	83
COc1cc(C)c(S(=O)(=O)N2CCCCC2COc2ccnc(N3CCC(CCN4CCCC4)CC3)n2)c(C)c1 (stereo not drawn) [H_CC-002, 4-[[1-(4-methoxy-2,6-dimethylphenyl)sulfonyl-2-piperidinyl]methoxy]-2-[4-(2-1-pyrrolidinylethyl)-1-piperidinyl]pyrimidine]	77
COc1cc(C)c(S(=O)(=O)N2CC(Oc3ccnc(N4CCC(O)(c5cccnc5)CC4)n3)C2)c(C)c1 [H_CC-076, 1-[4-[1-[(4-methoxy-2,6-dimethyl-phenyl)sulfonyl]-azetidin-3-yl]oxy-pyrimidin-2-yl]-4-pyridin-3-yl-piperidin-4-ol]	69
